Test results from patent US20250320228A1, “PYRIDO[3,2-D]PYRIMIDINES AS HPK1 INHIBITORS” (Merck Patent GmbH, priority 2022, published 2025).

Legend:
HPK1 pSLP76 (Ser376) = assay: Cellular assay phospho-SLP-76 (Ser376); format: cell-based, human; settings: SLP76 Ser376 phosphorylation after αCD3/αCD28 stimulation; Jurkat (human) or EL-4 (mouse) cells, table does not say which; read-out: HPK1 pSLP76 IC50
In short: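 Jurkat (human) and EL-4 (mouse) cells preincubated 60 min with compound, then stimulated with αCD3/αCD28 Dynabeads at 37 °C (Jurkat 15 min; EL-4 30 min). SLP76 Ser376 phosphorylation in lysate read by AlphaLISA SureFire (Jurkat) or HTRF (EL-4, 19 h); IC50 from 10-point dilutions.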

[1] = target: full-length human HPK1 (MAP4K1) (Homo sapiens (Human), UniProt Q92918); assay: HPK1 kinase assay (biochemical, ADP-Glo); settings: GST-HPK1 3.2 nM, 10 μM ATP, MBP substrate, ADP-Glo; read-out: HPK1 enzymatic IC50
In short: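 GST-tagged full-length human HPK1 from Sf21 baculovirus cells (3.2 nM in enzyme mix; 50 mM HEPES pH 7.5, 10 mM MgCl2) was preincubated 15 min at RT with compound. Reaction was started with Start-Mix (10 μM ATP, 3.235 μM MBP) and run 120 min. ADP was read by ADP-Glo luminescence; IC50 came from 10-point % inhibition.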

Sequence of full-length human HPK1 (MAP4K1) (Q92918 whole entry): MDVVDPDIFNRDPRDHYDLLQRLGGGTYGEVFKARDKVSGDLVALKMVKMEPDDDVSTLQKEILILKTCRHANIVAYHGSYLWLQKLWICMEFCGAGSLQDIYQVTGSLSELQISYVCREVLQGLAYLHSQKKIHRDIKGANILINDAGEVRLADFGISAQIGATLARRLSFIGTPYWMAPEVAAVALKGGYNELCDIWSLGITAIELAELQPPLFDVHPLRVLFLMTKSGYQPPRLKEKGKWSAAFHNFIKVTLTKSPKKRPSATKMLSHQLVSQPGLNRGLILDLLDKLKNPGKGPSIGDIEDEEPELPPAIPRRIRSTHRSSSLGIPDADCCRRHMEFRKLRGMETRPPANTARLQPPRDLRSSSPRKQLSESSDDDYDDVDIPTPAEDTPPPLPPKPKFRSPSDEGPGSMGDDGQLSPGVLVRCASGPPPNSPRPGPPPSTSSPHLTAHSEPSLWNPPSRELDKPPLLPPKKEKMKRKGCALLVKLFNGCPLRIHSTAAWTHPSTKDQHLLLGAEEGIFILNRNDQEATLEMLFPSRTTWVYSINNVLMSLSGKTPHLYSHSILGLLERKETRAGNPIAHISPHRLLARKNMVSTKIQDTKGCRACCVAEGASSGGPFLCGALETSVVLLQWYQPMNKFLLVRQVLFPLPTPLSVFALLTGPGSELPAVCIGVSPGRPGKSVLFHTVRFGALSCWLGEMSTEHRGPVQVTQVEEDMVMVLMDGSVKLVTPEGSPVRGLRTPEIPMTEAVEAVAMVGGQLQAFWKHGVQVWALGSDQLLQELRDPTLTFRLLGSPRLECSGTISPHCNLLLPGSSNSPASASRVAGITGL

Structure (SMILES) | IC50 (HPK1 pSLP76 (Ser376)) | IC50 [1]
CC1(N2CCOCC2)CC=C(c2cc(C(N)=O)c3ncnc(N[C@H]4CCCNC4)c3n2)CC1 (stereo partly drawn) [Example 74, 6-[4-methyl-4-(morpholin-4-yl)cyclohex-1-en-1-yl]-4-{[(3S)-piperidin-3-yl]amino}pyrido[3,2-d]pyrimidine-8-carboxamide] | > 1000 nM | < 100 nM
NC(=O)c1cc(C2=CCN(C(=O)C3CC3)CC2)nc2c(N[C@H]3CCCNC3)ncnc12 [Example 75, 6-(1-cyclopropanecarbonyl-1,2,3,6-tetrahydropyridin-4-yl)-4-{[(3S)-piperidin-3-yl]amino}pyrido[3,2-d]pyrimidine-8-carboxamide] | 500 to 1000 nM | < 100 nM
NC(=O)c1cc(-c2ccc(F)cc2)nc2c(N[C@H]3CCCNC3)ncnc12 [Example 76, 6-(4-fluorophenyl)-4-{[(3S)-piperidin-3-yl]amino}pyrido[3,2-d]pyrimidine-8-carboxamide] | < 500 nM | < 100 nM
Cn1cc(-c2cc(C(N)=O)c3ncnc(N[C@H]4CCCNC4)c3n2)cc1C#N [Example 83, 6-(5-cyano-1-methyl-1H-pyrrol-3-yl)-4-{[(3S)-piperidin-3-yl]amino}pyrido[3,2-d]pyrimidine-8-carboxamide] | < 500 nM | < 100 nM

More lines, now with the values ahead:

IC50 (HPK1 pSLP76 (Ser376)) | IC50 [1] | Structure (SMILES)
500 to 1000 nM | < 100 nM | NC(=O)c1cc(-c2ccc(CN3CCOC(F)(F)C3)cc2)nc2c(N[C@H]3CCCNC3)ncnc12 [Example 70, 6-[4-[(2,2-difluoromorpholin-4-yl)methyl]phenyl]-4-[(3S)-piperidin-3-ylamino]pyrido[3,2-d]pyrimidine-8-carboxamide]
> 1000 nM | < 100 nM | COc1ccccc1-c1cc(C(N)=O)c2ncnc(N[C@H]3CCCNC3)c2n1 [Example 72, 6-(2-methoxyphenyl)-4-[(3S)-piperidin-3-ylamino]pyrido[3,2-d]pyrimidine-8-carboxamide]
> 1000 nM | < 100 nM | Cc1nn(C)cc1-c1cc(C(N)=O)c2ncnc(N[C@H]3CCCNC3)c2n1 [Example 79, 6-(1,3-dimethyl-1H-pyrazol-4-yl)-4-{[(3S)-piperidin-3-yl]amino}pyrido[3,2-d]pyrimidine-8-carboxamide]
> 1000 nM | < 100 nM | NC(=O)c1cc(-c2cnn(CC(F)F)c2)nc2c(N[C@H]3CCCNC3)ncnc12 [Example 81, 6-[1-(2,2-difluoroethyl)-1H-pyrazol-4-yl]-4-{[(3S)-piperidin-3-yl]amino}pyrido[3,2-d]pyrimidine-8-carboxamide]
500 to 1000 nM | < 100 nM | NC(=O)c1cc(-c2ccc(C3(O)COC3)cc2)nc2c(N[C@H]3CCCNC3)ncnc12 [Example 82, 6-[4-(3-hydroxyoxetan-3-yl)phenyl]-4-{[(3S)-piperidin-3-yl]amino}pyrido[3,2-d]pyrimidine-8-carboxamide]
500 to 1000 nM | < 100 nM | N#Cc1ccccc1-c1cc(C(N)=O)c2ncnc(N[C@H]3CCCNC3)c2n1 [Example 86, 6-(2-cyanophenyl)-4-{[(3S)-piperidin-3-yl]amino}pyrido[3,2-d]pyrimidine-8-carboxamide]
